Calls of active or inactive are those of the source. The rule behind the calls is not given here.
How the values were obtained:
[1] = biological target: Phosphatidylinositol 4-kinase beta (Homo sapiens) (UniProt Q9UBF8); assay: Inhibition of PI4KB ATP labeling site harbouring VPHTQAVVLNSKDKAPYLIYVEVLECENFDTTSVPAR in human A-375 cells at 0.5 uM by KiNativ Profiling analysis relative to control; type: cell-based
[2] = biological target: Rhodopsin kinase GRK1 (Homo sapiens) (UniProt Q15835); assay: Inhibition of GRK1 (unknown origin) at 1 uM by Ambit Kinomescan binding assay relative to control; values are per cent of control
[3] = biological target: Cyclin-dependent kinase-like 5 (Homo sapiens) (UniProt O76039); assay: Inhibition of CDKL5 (unknown origin) at 1 uM by Ambit Kinomescan binding assay relative to control; values are per cent of control
[4] = biological target: Tyrosine-protein kinase TXK (Homo sapiens) (UniProt P42681); assay: Inhibition of TXK (unknown origin) at 1 uM by Ambit Kinomescan binding assay relative to control
[5] = system: Tyrosine-protein kinase ABL1 (Homo sapiens), P00519 [M351T]; assay: Inhibition of phosphorylated ABL1 M351T mutant (unknown origin) at 1 uM by Ambit Kinomescan binding assay relative to control; values are per cent of control
[6] = biological target: Serine/threonine-protein kinase PAK 6 (Homo sapiens) (UniProt Q9NQU5); assay: Inhibition of PAK6 (unknown origin) at 10 uM by Ambit Kinomescan binding assay
[7] = biological target: Serine/threonine-protein kinase SIK1 (Homo sapiens) (UniProt P57059); assay: Inhibition of SIK (unknown origin) at 10 uM by Ambit Kinomescan binding assay relative to control; values are per cent of control
[8] = biological target: Uncharacterized serine/threonine-protein kinase SBK3 (Homo sapiens) (UniProt P0C264); assay: Inhibition of SgK110 (unknown origin) at 10 uM by Ambit Kinomescan binding assay
[9] = biological target: MAP/microtubule affinity-regulating kinase 3 (Homo sapiens) (UniProt P27448); assay: Inhibition of MARK3 (unknown origin) at 10 uM by Ambit Kinomescan binding assay
[10] = biological target: Tyrosine-protein kinase CSK (Homo sapiens, UniProt P41240); assay: Inhibition of CSK ACT labeling site harbouring VSDFGLTKEASSTQDTGKLPVK in human A-375 cells at 0.5 uM by KiNativ Profiling analysis relative to control; type: cell-based
[11] = biological target: Maternal embryonic leucine zipper kinase (Homo sapiens) (UniProt Q14680); assay: Inhibition of MELK Lys2 labeling site in human A-375 cells at 0.05 uM by KiNativ Profiling analysis relative to control; type: cell-based
[12] = biological target: T1, Serine/threonine-protein kinase ULK3 (Homo sapiens) (UniProt Q6PHR2); assay: Inhibition of ULK3 Lys2 labeling site in human A-375 cells at 0.05 uM by KiNativ Profiling analysis relative to control; type: cell-based
T1 sequence (whole entry): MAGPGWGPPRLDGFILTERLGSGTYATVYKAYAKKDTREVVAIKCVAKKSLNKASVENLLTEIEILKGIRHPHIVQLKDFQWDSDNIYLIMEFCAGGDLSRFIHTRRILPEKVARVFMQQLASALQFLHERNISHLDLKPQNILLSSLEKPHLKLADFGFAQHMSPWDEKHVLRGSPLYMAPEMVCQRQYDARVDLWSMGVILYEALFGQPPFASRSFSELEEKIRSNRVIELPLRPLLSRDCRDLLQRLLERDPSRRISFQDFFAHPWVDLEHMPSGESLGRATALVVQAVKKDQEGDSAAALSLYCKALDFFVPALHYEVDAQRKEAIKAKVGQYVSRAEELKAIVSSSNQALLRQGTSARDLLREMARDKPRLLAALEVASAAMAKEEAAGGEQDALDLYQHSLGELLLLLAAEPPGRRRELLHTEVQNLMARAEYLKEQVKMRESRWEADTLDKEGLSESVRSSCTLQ

[13] = biological target: Ribosomal protein S6 kinase alpha-3 (Homo sapiens) (UniProt P51812); assay: Inhibition of N-terminal RPS6KA3 kinase domain 1 (unknown origin) at 10 uM by Ambit Kinomescan binding assay
[14] = biological target: Cyclin-dependent kinase 13 (Homo sapiens) (UniProt Q14004); assay: Inhibition of CHED K2 labeling site in human Huh-7 cells at 10 uM by KiNativ Profiling analysis relative to control; type: cell-based
[15] = biological target: T2, Myotonin-protein kinase (Homo sapiens) (UniProt Q09013); assay: Inhibition of DMPK (unknown origin) at 10 uM by Ambit Kinomescan binding assay
T2 sequence (whole entry): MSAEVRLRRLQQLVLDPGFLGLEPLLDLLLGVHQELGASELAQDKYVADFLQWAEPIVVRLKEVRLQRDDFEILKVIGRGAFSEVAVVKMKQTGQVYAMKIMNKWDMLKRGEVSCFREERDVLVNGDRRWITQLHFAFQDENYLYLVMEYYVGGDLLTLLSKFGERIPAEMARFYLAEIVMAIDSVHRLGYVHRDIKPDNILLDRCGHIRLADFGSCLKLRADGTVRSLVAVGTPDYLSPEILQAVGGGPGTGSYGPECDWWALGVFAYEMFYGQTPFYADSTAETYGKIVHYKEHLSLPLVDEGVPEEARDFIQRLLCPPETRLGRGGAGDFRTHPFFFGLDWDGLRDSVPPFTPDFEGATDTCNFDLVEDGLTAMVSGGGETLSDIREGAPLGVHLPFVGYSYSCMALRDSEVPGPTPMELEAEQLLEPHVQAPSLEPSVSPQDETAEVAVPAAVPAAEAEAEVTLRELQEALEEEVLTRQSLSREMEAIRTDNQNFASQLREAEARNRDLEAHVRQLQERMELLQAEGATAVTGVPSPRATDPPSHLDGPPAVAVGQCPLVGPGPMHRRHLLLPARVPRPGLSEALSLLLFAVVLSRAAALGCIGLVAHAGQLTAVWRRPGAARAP

[16] = biological target: Cyclin-dependent kinase 5 (Homo sapiens) (UniProt Q00535); assay: Inhibition of CDK5 Lys2 labeling site harbouring NVLHRDLKPQNLLINR in human Huh-7 cells at 1 uM by KiNativ Profiling analysis relative to control; type: cell-based

Sequence of Cyclin-dependent kinase 13 (Homo sapiens) (Q14004 whole entry, looked up): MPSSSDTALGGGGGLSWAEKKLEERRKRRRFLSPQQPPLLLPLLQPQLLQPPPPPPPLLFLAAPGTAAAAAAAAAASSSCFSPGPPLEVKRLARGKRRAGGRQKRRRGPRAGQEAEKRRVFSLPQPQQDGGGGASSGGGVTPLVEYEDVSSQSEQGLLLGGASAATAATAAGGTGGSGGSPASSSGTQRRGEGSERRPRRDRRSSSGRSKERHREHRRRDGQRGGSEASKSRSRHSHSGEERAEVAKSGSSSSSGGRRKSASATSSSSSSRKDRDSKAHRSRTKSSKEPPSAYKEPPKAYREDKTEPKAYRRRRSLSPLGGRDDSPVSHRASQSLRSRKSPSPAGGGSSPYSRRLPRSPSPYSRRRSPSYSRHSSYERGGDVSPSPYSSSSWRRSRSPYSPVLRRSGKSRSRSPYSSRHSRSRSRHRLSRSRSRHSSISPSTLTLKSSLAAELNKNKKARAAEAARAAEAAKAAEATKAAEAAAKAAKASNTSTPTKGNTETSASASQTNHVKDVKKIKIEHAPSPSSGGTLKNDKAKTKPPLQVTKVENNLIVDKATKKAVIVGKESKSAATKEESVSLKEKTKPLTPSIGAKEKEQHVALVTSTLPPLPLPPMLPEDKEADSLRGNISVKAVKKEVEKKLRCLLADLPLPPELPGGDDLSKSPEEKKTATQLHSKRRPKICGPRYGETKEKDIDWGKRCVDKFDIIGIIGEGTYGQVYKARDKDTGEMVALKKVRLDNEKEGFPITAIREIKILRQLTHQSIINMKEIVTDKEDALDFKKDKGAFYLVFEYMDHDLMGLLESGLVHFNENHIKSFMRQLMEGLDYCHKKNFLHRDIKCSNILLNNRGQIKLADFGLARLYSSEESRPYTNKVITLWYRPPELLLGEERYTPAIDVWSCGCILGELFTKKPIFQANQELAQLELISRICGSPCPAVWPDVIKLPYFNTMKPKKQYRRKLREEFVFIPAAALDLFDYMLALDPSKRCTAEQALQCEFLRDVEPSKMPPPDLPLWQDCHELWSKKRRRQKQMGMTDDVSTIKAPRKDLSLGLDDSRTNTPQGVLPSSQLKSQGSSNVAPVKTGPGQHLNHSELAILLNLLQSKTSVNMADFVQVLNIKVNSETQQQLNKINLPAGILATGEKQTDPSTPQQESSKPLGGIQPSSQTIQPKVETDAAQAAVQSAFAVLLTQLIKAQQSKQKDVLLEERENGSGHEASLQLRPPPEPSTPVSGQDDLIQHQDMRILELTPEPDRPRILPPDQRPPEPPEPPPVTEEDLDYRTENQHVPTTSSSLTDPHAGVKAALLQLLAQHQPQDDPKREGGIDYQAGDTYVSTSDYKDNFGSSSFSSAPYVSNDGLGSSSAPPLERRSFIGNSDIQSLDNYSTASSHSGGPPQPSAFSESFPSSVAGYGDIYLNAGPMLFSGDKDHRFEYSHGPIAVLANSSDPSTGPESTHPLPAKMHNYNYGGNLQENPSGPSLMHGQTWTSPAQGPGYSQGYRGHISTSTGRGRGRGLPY
Sequence of Rhodopsin kinase GRK1 (Homo sapiens) (Q15835 whole entry): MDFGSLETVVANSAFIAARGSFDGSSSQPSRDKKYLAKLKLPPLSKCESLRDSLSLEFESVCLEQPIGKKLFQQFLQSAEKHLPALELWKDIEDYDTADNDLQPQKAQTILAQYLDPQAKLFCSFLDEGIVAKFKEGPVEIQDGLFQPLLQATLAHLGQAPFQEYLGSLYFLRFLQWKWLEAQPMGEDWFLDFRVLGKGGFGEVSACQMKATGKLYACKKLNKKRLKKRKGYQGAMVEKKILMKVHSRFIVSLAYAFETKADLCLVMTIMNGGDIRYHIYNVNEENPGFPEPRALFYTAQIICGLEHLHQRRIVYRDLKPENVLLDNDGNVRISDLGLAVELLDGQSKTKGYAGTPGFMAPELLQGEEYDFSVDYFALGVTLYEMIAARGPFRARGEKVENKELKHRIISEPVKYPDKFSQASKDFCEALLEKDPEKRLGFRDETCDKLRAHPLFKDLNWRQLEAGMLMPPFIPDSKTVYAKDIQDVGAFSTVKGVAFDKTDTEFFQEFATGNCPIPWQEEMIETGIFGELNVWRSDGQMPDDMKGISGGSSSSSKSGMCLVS
Sequence of Serine/threonine-protein kinase SIK1 (Homo sapiens) (P57059 whole entry): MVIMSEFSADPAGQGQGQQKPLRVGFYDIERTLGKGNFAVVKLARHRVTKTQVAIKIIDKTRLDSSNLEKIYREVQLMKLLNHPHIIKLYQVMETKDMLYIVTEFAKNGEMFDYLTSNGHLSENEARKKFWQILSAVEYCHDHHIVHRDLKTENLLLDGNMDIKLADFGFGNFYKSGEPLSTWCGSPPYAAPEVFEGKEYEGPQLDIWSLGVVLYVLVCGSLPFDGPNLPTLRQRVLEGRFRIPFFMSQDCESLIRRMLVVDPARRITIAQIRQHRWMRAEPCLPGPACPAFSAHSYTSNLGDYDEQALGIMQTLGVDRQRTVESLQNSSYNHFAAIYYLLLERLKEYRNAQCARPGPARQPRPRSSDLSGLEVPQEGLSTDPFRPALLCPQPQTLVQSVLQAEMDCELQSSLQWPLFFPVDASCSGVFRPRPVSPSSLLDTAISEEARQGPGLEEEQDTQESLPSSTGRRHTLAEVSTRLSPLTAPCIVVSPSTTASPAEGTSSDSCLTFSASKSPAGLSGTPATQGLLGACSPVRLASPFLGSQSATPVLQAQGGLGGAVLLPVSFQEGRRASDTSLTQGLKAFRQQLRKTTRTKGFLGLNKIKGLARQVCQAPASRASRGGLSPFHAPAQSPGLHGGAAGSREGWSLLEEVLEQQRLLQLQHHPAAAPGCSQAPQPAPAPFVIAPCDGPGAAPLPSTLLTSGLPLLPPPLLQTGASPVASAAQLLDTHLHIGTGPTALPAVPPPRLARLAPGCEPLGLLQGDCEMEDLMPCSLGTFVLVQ
Sequence of Uncharacterized serine/threonine-protein kinase SBK3 (Homo sapiens) (P0C264 whole entry): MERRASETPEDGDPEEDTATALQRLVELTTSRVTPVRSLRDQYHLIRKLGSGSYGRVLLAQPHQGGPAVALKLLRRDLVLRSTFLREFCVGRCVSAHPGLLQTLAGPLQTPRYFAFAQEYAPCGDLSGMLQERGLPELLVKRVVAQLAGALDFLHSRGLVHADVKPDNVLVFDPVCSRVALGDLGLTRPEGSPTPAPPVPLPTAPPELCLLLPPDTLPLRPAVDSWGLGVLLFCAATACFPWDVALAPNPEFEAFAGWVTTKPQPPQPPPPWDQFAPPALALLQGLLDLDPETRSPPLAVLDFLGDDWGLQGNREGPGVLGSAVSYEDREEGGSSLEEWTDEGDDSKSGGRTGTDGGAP
Sequence of Cyclin-dependent kinase-like 5 (Homo sapiens) (O76039 whole entry): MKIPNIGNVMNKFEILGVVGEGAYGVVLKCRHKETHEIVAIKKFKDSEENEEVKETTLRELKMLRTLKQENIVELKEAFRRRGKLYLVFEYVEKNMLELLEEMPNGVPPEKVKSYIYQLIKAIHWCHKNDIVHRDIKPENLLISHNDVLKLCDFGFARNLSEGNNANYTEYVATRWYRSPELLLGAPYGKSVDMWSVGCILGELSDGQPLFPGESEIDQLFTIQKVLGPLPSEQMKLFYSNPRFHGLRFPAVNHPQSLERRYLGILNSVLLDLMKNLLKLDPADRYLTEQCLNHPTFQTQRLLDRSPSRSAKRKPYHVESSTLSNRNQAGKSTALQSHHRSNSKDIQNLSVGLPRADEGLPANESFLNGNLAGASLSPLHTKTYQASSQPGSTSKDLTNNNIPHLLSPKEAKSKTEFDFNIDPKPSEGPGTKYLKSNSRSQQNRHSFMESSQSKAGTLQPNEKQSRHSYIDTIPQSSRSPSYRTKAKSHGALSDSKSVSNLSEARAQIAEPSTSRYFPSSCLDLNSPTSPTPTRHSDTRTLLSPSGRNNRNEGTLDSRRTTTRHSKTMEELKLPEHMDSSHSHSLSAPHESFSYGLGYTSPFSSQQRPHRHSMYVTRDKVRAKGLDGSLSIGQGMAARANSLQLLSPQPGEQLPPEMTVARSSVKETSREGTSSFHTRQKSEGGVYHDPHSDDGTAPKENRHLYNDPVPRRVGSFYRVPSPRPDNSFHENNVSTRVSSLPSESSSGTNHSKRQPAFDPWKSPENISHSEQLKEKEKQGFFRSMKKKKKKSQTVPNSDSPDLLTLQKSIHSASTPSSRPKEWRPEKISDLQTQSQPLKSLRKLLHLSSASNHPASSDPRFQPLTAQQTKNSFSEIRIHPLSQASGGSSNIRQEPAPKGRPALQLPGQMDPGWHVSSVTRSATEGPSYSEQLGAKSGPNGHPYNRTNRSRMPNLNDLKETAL
Sequence of MAP/microtubule affinity-regulating kinase 3 (Homo sapiens) (P27448 whole entry, looked up): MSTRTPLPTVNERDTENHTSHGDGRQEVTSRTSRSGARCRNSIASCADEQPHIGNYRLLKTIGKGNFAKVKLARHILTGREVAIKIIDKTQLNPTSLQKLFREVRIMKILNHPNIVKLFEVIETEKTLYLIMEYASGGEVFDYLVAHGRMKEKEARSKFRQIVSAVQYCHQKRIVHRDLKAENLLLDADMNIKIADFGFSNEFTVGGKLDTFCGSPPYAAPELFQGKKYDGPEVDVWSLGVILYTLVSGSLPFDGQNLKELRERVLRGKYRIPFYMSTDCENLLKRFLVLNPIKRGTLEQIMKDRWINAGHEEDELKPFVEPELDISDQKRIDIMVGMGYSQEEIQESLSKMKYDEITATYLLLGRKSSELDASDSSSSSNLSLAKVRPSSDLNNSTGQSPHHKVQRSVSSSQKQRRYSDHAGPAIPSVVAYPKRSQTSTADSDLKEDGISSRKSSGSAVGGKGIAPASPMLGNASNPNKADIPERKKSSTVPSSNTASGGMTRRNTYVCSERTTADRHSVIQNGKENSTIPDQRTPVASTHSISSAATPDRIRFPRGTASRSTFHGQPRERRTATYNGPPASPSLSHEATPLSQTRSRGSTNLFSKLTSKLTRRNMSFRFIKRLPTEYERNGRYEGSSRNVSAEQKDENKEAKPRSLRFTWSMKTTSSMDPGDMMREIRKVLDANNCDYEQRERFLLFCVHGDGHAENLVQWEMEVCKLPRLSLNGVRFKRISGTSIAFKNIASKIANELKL

## CCN1CCN(Cc2ccc(NC(=O)c3ccc(C)c(/C=C/c4cnc5[nH]ccc5c4OC)c3)cc2C(F)(F)F)CC1
[1]
  inhibition: 18.3%
[2]
  residual activity: 100%
[3]
  residual activity: 100%
[4]
  inhibition: 1.4%
[5]
  % of control: 4.4%

## CCN1CCN(Cc2ccc(NC(=O)c3ccc(C)c(Oc4ccnc5[nH]ccc45)c3)cc2C(F)(F)F)CC1
[6]
  inhibition: inactive
[7]
  residual activity: 5.3%
[8]
  inhibition: inactive
[9]
  inhibition: inactive
[10]
  inhibition: 36.5%
[11]
  inhibition: 4.1%
[12]
  inhibition: 6.7%
[13]
  inhibition: inactive
[14]
  inhibition: inactive
[15]
  inhibition: inactive

## CNc1cc(Oc2cc(C(=O)Nc3cc(N4CCN(C)CC4)cc(C(F)(F)F)c3)ccc2C)ncn1
[16]
  inhibition: 1.1%

Source: ChEMBL document CHEMBL5696442, “Discovery of type II inhibitors of TGFβ-activated kinase 1 (TAK1) and mitogen-activated protein kinase kinase kinase kinase 2 (MAP4K2)” (J Med Chem, 2015)
